The record followed here is patent publication US8173635B2, “Kinase inhibitors” (Vertex Pharmaceuticals Incorporated, priority 2007, dated 2012).

Common to all, as to assay type: biochemical
The target in one assay is PKC delta kinase (Homo sapiens, UniProt Q05655). As to the kind of experiment: PKC delta kinase inhibition, coupled-enzyme NADH absorbance assay (Ki). Particulars: 150 μM ATP, 46 nM PKC delta, 30° C.; read-out: Ki PKC delta. Here is the method: (§1) An assay buffer solution was prepared which consisted of 100 mM HEPES (pH 7.5), 10 mM MgCl2, 25 mM NaCl, 0.1 mM EDTA and 0.01% Brij. […] To 16 μL of this enzyme buffer, in a 384 well plate, was added 1 μL of VRT stock solution in DMSO. The mixture was allowed to equilibrate for 10 mins at 30° C. […] Ki values were calculated from initial rate data by non-linear regression using the Prism software package (Prism 4.0a, Graphpad Software, San Diego, Calif.).

In the next assay the target is PKC theta kinase (Homo sapiens, UniProt Q04759). As to the kind of experiment: PKC theta kinase inhibition, coupled-enzyme NADH absorbance assay (Ki). Conditions: 240 μM ATP, 18 nM PKC theta, 30° C.; read-out: Ki PKC theta. Here is the method:
An assay buffer solution was prepared which consisted of 100 mM HEPES (pH 7.5), 10 mM MgCl2, 25 mM NaCl, 0.1 mM EDTA and 0.01% Brij. […] To 60 μL of this enzyme buffer, in a 384 well plate, was added 2 μL of VRT stock solution in DMSO. The mixture was allowed to equilibrate for 10 mins at 30° C. […] Ki values were calculated from initial rate data by non-linear regression using the Prism software package (Prism 4.0a, Graphpad Software, San Diego, Calif.).

Another assay deals with PKC alpha kinase (Homo sapiens, UniProt P17252). As to the kind of experiment: PKC alpha kinase inhibition, coupled-enzyme NADH absorbance assay (Ki). Particulars: 130 μM ATP, 4.5 nM PKC alpha, 30° C.; read-out: Ki PKC alpha. As for the experimental part:
as §1, with “EDTA, 100 μM CaCl2” for “EDTA”, “C. The enzyme reaction was initiated by the addition of 16 μL stock ATP solution prepared in assay buffer to a final assay concentration of 130 μM. Initial rate data was determined from the rate of change of absorbance at 340 nm (corresponding to stoichiometric consumption of NADH) using a Molecular Devices Spectramax plate reader (Sunnyvale, Calif.) over 15 mins at 30° C.” for “C.”

Sequence of PKC theta kinase (Q04759 whole entry): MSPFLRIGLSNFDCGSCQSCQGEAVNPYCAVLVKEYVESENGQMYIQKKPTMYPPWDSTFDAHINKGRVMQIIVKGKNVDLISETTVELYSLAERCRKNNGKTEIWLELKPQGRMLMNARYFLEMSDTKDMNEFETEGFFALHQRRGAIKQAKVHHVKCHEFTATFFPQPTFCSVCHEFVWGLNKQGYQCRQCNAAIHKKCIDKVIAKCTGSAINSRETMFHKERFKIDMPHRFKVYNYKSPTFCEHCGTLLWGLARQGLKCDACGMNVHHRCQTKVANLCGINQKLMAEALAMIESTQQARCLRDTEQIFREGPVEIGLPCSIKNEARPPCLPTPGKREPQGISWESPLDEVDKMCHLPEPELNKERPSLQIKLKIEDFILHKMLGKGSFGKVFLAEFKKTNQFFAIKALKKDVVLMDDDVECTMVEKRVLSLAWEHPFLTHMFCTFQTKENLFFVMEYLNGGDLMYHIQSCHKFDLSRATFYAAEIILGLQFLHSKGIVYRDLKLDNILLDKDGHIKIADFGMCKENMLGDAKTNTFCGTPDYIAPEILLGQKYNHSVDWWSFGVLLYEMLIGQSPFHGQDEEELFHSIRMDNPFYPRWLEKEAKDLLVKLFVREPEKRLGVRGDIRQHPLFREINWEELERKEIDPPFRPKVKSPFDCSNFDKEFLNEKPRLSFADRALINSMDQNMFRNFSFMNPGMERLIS
Sequence of PKC delta kinase (Q05655 whole entry): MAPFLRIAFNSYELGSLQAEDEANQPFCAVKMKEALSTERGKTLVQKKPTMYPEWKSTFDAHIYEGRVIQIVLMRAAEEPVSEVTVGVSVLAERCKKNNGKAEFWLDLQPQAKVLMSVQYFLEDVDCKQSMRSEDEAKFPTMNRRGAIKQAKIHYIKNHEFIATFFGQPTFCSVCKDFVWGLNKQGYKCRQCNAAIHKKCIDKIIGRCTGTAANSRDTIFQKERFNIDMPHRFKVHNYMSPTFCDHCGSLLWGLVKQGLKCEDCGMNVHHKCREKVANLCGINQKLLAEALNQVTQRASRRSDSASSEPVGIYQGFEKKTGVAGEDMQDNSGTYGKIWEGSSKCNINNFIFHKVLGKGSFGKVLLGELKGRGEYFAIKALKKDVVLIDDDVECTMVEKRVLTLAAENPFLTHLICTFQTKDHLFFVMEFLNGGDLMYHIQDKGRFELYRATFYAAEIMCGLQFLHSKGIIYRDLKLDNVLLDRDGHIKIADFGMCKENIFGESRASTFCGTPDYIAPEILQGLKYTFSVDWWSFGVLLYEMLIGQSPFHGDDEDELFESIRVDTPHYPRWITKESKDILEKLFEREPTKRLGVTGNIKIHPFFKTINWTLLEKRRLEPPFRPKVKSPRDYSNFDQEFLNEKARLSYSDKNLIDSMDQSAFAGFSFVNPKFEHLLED

In the case of `CC(C)(CN)c1cc(Br)cc(-c2ccnc3[nH]ncc23)c1` [Compound 34], the Ki was below 500 nM on PKC delta kinase, below 50 nM at PKC theta kinase and below 2800 nM on PKC alpha kinase.
Consider `NCc1cccc(-c2ccnc3[nH]nc(C(F)(F)F)c23)c1` [Compound 294], for which the Ki on PKC delta kinase is above 1200 nM; on PKC theta kinase it was below 500 nM; on PKC alpha kinase it was above 1200 nM.
For the molecule `C=Cc1ccc(-c2ccnc3n[nH]cc23)cc1C(C)(C)C#N` [Compound 84], the Ki on PKC delta kinase is above 2800 nM; on PKC theta kinase it was below 2800 nM; on PKC alpha kinase it was above 2800 nM.
Turning to `CCC(C)(CN)c1cc(-c2ccnc3[nH]ncc23)cc(C(C)F)c1` (centres unmarked) [Compound 159], the figures for the Ki at PKC delta kinase, at PKC theta kinase and on PKC alpha kinase were below 2800 nM, below 50 nM and below 2800 nM, respectively.
Regarding `CC(C)(C#N)c1cc(CN)cc(-c2ccnc3[nH]ncc23)c1` [Compound 76], the figures for the Ki at PKC delta kinase, at PKC theta kinase and on PKC alpha kinase were above 2800 nM, below 2800 nM and above 2800 nM, respectively.
As for `CCc1cc(-c2ccnc3[nH]ncc23)cc(C(C)(C)CN)c1` [Compound 44], the figures for the Ki at PKC delta kinase, at PKC theta kinase and on PKC alpha kinase were below 2800 nM, below 500 nM and below 2800 nM, respectively.
For `Cc1cnc2[nH]ncc2c1-c1cccc(C(C)(C)C#N)c1` [Compound 219], the Ki was above 2000 nM on PKC delta kinase, above 700 nM on PKC theta kinase and above 1200 nM at PKC alpha kinase.
Regarding `C=C1CCc2ccc(-c3ccnc4[nH]ncc34)cc21` [Compound 202, 4-(3-Methylene-2,3-dihydro-1H-inden-5-yl)-1H-pyrazolo[3,4-b]pyridine], the Ki on PKC delta kinase, at PKC theta kinase and at PKC alpha kinase was above 2800 nM in each case.
With `CCCc1cc(-c2ccnc3[nH]ncc23)cc(C(C)(CC)CN)c1` (centres unmarked) [Compound 130], the Ki on PKC delta kinase is below 2800 nM; at PKC theta kinase, below 50 nM; at PKC alpha kinase it was below 2800 nM.
In the case of `CCC(F)c1cc(-c2ccnc3[nH]ncc23)cc(C(C)(CC)CN)c1` (centres unmarked) [Compound 158], the Ki on PKC delta kinase was above 2000 nM; at PKC theta kinase it was below 500 nM; at PKC alpha kinase it was below 2800 nM.
Turning to `CC(C)(O)CCc1cc(-c2ccnc3[nH]nc(C(F)(F)F)c23)cc(C2(C#N)CC2)c1` [Compound 316], the results for the Ki at PKC delta kinase, at PKC theta kinase and on PKC alpha kinase were above 1200 nM, below 50 nM and above 1200 nM, respectively.
Take `CC(C)=CCC(C)(CN)c1cccc(-c2ccnc3[nH]ncc23)c1` (centres unmarked) [Compound 154]: the Ki on PKC delta kinase is below 500 nM; on PKC theta kinase, below 50 nM; on PKC alpha kinase, below 500 nM.
For the molecule `NC(CC1CCCCC1)c1cccc(-c2ccnc3[nH]nc(C(F)(F)F)c23)c1` (centres unmarked) [Compound 298], the Ki was above 1200 nM at PKC delta kinase, above 700 nM on PKC theta kinase and above 1200 nM on PKC alpha kinase.
`CCC1(c2cccc(-c3ccnc4[nH]nc(C(F)(F)F)c34)c2)CNC(=O)O1` (centres unmarked) [Compound 288]: the values for the Ki at PKC delta kinase, on PKC theta kinase and at PKC alpha kinase were below 2800 nM, below 50 nM and below 500 nM, respectively.
In the case of `N#CC1(c2cccc(-c3ccnc4[nH]ncc34)c2)CC(F)(F)C1` [Compound 226], the Ki is above 1200 nM at PKC delta kinase, above 700 nM at PKC theta kinase and above 1200 nM on PKC alpha kinase.
In the case of `CC(C)(C#N)c1cc(-c2ccnc3[nH]ncc23)cc(C(O)c2ccccc2)c1` (centres unmarked) [Compound 15], the Ki at PKC theta kinase is below 2800 nM.
With `CC(=O)N1CCN(c2cc(-c3ccnc4[nH]ncc34)cc(C(C)(C)C#N)c2)CC1` [Compound 7], the Ki at PKC delta kinase and at PKC theta kinase was above 2800 nM throughout.
In the case of `CC(C)(C#N)c1cc(-c2ccnc3[nH]ncc23)cc(C2CCCCC2)c1` [Compound 58], the Ki on PKC theta kinase is below 2800 nM.
Turning to `C#Cc1cc(-c2ccnc3[nH]ncc23)cc(C(C)(C)C#N)c1` [Compound 61], the Ki at PKC theta kinase was below 500 nM.
For `CCCc1cc(-c2ccnc3[nH]nc(C(F)(F)F)c23)cc(C2(C#N)CC2)c1` [Compound 313], the Ki on PKC delta kinase and at PKC alpha kinase was above 1200 nM in each case.
Turning to `O=C1CCc2ccc(-c3ccnc4[nH]ncc34)cc21` [Compound 28], the Ki at PKC theta kinase was below 500 nM.
Regarding `CC(C)(C)OC(=O)NCCNc1cc(-c2ccnc3[nH]ncc23)cc(C(C)(C)C#N)c1` [Compound 81], the Ki on PKC theta kinase is below 2800 nM.
In the case of `N#CCc1cccc(-c2ccnc3[nH]ncc23)c1` [Compound 23], at PKC theta kinase, the Ki is below 500 nM.
For the molecule `OC1CCc2ccc(-c3ccnc4[nH]ncc34)cc21` (centres unmarked) [Compound 29], at PKC theta kinase, the Ki is above 2800 nM.
Same read-out and setting: in the case of `CC(C)(C#N)c1cc(-c2ccnc3[nH]ncc23)cc(N2CCCCC2)c1` [Compound 9] it was below 2800 nM; in that of `CC(C)(C#N)c1cc(NCc2ccccc2)cc(-c2ccnc3[nH]ncc23)c1` [Compound 12], below 2800 nM.
As to `N#CC1(c2cccc(-c3ccnc4[nH]ncc34)n2)CCNC1` (centres unmarked) [Compound 3], the Ki is below 500 nM on PKC delta kinase and below 50 nM on PKC theta kinase.
For `CC(C)(CN)c1cc(-c2ccnc3[nH]ncc23)cc(N2CCCCC2)c1` [Compound 33], the Ki at PKC theta kinase is above 2800 nM.
As to `N#CC1(c2cccc(-c3ccnc4[nH]ncc34)c2)CCNCC1` [Compound 6], the results for the Ki on PKC delta kinase and on PKC theta kinase were below 2800 nM and below 500 nM, respectively.
Consider `C=CCc1cc(CNC)cc(-c2ccnc3[nH]ncc23)c1` [Compound 63], for which, on PKC theta kinase, the Ki was below 500 nM.
Take `CC(C)(C#N)c1cc(-c2ccccc2)cc(-c2ccnc3[nH]ncc23)c1` [Compound 53, 2-(5-(1H-pyrazolo[3,4-b]pyridin-4-yl)biphenyl-3-yl)-2-methylpropanenitrile]: on PKC theta kinase, the Ki was below 2800 nM.
In the case of `CC(C)(C#N)c1cc(Nc2ccccc2)cc(-c2ccnc3[nH]ncc23)c1` [Compound 10], the Ki is above 2800 nM on PKC delta kinase and below 500 nM at PKC theta kinase.
Take `CC(C)(CN)c1cc(-c2ccccc2)cc(-c2ccnc3[nH]ncc23)c1` [Compound 35]: at PKC theta kinase, the Ki was below 2800 nM.
For the molecule `CCC(C#N)(CC)c1cccc(-c2ccnc3[nH]ncc23)c1` [Compound 68], the Ki at PKC theta kinase is below 500 nM; on PKC alpha kinase, below 2800 nM.
`CC(C)C(O)c1cc(-c2ccnc3[nH]ncc23)cc(C(C)(C)CN)c1` (centres unmarked) [Compound 43]: the Ki on PKC theta kinase was below 2800 nM.
With `N#CC1(c2cccc(-c3ccnc4[nH]ncc34)n2)CCNCC1` [Compound 2], the Ki at PKC delta kinase is below 500 nM; on PKC theta kinase, below 50 nM.
Take `Cc1cc(-c2ccnc3[nH]ncc23)cc(C(C)(C)C#N)c1` [Compound 5]: the Ki was below 2800 nM on PKC delta kinase and below 50 nM on PKC theta kinase.
Consider `OC1CCc2cc(-c3ccnc4[nH]ncc34)ccc21` (centres unmarked) [Compound 27], for which the Ki at PKC theta kinase is below 2800 nM.
Turning to `C=C(C)c1cc(-c2ccnc3[nH]ncc23)cc(C(C)(C)C#N)c1` [Compound 65], the Ki on PKC theta kinase is below 500 nM.
Still for that read-out and setting: with `CC(C)(C#N)c1cc(C2=CCCCC2)cc(-c2ccnc3[nH]ncc23)c1` [Compound 56] the figure was above 2800 nM.
For `CC(C)(C#N)c1cc(NC2CCNCC2)cc(-c2ccnc3[nH]ncc23)c1` [Compound 20], the Ki on PKC theta kinase was below 500 nM.
For `O=C1CCc2cc(-c3ccnc4[nH]ncc34)ccc21` [Compound 26], the Ki at PKC theta kinase is below 2800 nM.
Still for that read-out and setting: with `C/C=C/c1cc(CNC)cc(-c2ccnc3[nH]ncc23)c1` [Compound 60] the figure was below 2800 nM.
In the case of `Cc1cc(-c2ccnc3[nH]ncc23)cc(C2(CN)CCCC2)c1` [Compound 189], the Ki on PKC theta kinase was below 50 nM; on PKC alpha kinase, below 2800 nM.
Turning to `CC(C)(CN)c1cc(C2=CCCCC2)cc(-c2ccnc3[nH]ncc23)c1` [Compound 37], at PKC theta kinase, the Ki was below 2800 nM.
For the molecule `CC(C)(C#N)c1cc(NC2CNC2)cc(-c2ccnc3[nH]ncc23)c1` [Compound 14], the Ki at PKC theta kinase was below 500 nM.
In the case of `CC(C)(C#N)c1cc(-c2ccnc3[nH]ncc23)cc(N2CCNCC2)c1` [Compound 8], the results for the Ki on PKC delta kinase and on PKC theta kinase were above 2800 nM and below 500 nM, respectively.
Turning to `CC(C)(C#N)c1cc(-c2ccnc3n[nH]cc23)ccc1Br` [Compound 83], at PKC theta kinase, the Ki is below 2800 nM.
With `CC(C)(C#N)c1cc(C(=O)c2ccccc2)cc(-c2ccnc3[nH]ncc23)c1` [Compound 16], on PKC theta kinase, the Ki is below 2800 nM.
Consider `CC(C)(C#N)c1cc(NCCCNC(=O)OCc2ccccc2)cc(-c2ccnc3[nH]ncc23)c1` [Compound 82], for which the Ki on PKC theta kinase is below 2800 nM.
As for `CC(=O)c1cc(-c2ccnc3[nH]ncc23)cc(C(C)(C)C#N)c1` [Compound 24], at PKC theta kinase, the Ki was below 500 nM.
In the case of `CNCc1cc(Br)cc(-c2ccnc3[nH]ncc23)c1` [Compound 25], on PKC theta kinase, the Ki is below 500 nM.
Turning to `CC(C)(CN)c1cc(-c2ccc[nH]2)cc(-c2ccnc3[nH]ncc23)c1` [Compound 38], on PKC theta kinase, the Ki is below 500 nM.
`CC(C)(C#N)c1cccc(-c2ccnc3[nH]ncc23)c1` [Compound 4, 2-(3-(1H-pyrazolo[3,4-b]pyridin-4-yl)phenyl)-2-methylpropanenitrile]: the Ki at PKC delta kinase is below 2800 nM; on PKC theta kinase it was below 50 nM.
